What was measured:
[1] = tested on: WT Col-0 stomata; test: ABA-induced stomata closure in epidermal peels; type: cell-based, Arabidopsis thaliana; details: WT Col-0 epidermal peels; 10 μM ABA; 1 h; vs mock
Description: (§1) Stomata serve an important function in response to water stress, in large part by regulating transpiration rates. As an integral part of water stress, the regulation of stomatal aperture is a mechanism through which ABA-mediated signaling drives the conformational change in the shape of the guard cells, leading to a decrease in aperture size. To determine its putative role in linking ABA and stomata response, the NDR1 function was assayed. Epidermal peels of WT Col-0 and the ndr1 mutant were treated with 10 μM ABA, and after 1 hour, the stomata apertures were measured.

[2] = tested on: ndr1 stomata; test: ABA-induced stomata closure in epidermal peels; type: cell-based, Arabidopsis thaliana; details: 10 μM ABA, 1 h, vs mock
Description: as §1

[3] = tested on: Arabidopsis thaliana Col-0 seeds; test: Seed germination assay on ABA medium; type: in vivo
Description: (§2) Arabidopsis thaliana Col-0 and ndr1-1 seeds were surface sterilized with 50% bleach and 0.1% Triton X-100 for 20 min, with shaking, and rinsed five times with sterile distilled water under horizontal laminar flow hood. […] Plates were stratified at 4° C. for 4 days, in the dark, before being transferred to a growth chamber at 20° C., with a 12 h/12 h light/dark cycle and a light intensity of 120 μmol photons m^−2 s^−1.
(§3) During seed germination and dormancy assays, the radicle emergence was scored as germination and obvious cotyledons formation with green color was recorded as green cotyledons, respectively. The experiment was repeated five times, independently.

[4] = tested on: Arabidopsis thaliana ndr1-1 seeds; test: Seed germination assay on ABA medium; type: in vivo; details: ndr1 mutant
Description: as §2, §3

## CC1=CC(=O)CC(C)(C)[C@@]1(O)/C=C/C(C)=C\C(=O)O [ABA, abscisic acid]
[1]
  stomata aperture: significant reduction in aperture
[2]
  stomata aperture: did not show a change in aperture
[3]; 0.5 μM ABA
  germination rate (radicle emergence): 65%
[3]; 1.0 μM ABA
  germination rate (radicle emergence): 36%
[4]; 0.5 μM ABA
  germination rate (radicle emergence): 90%
[4]; 1.0 μM ABA
  germination rate (radicle emergence): 65%

— patent US9644213B2, “Method of enhancing plant drought tolerance by expression of NDR1” (BOARD OF TRUSTEES OF MICHIGAN STATE UNIVERSITY, priority 2012, dated 2017)
